{"source": "patent US20260262643A1", "about": "“HERBICIDAL BENZOXAZINES” (FMC CORPORATION, priority 2022, published 2026)", "key": {"[1]": {"tested_on": "sedge, umbrella", "assay": "Test D flooded paddy test", "format": "in vivo, Cyperus difformis", "settings": "250 g ai/ha, applied to paddy water, visual rating after 13 to 14 days, scale 0 to 100 (0 no effect, 100 complete control)", "outline": "(§1)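 Seedlings reached the 2-leaf stage, then pots were flooded to 3 cm over the soil surface. Compound was applied into the water, depth was maintained, and plants stayed in the greenhouse 13 to 14 days before visual scoring (0–100) relative to controls.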"}, "[2]": {"tested_on": "green foxtail", "assay": "Test C postemergence", "format": "in vivo, Setaria viridis", "settings": "10 days, 0 to 100 scale (0 no effect, 100 complete control)", "outline": "(§2)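 Test material, in non-phytotoxic solvent with surfactant, was sprayed on the soil directly after seeding (preemergence) or on young plants of 2–10 cm with one to two leaves (postemergence). Greenhouse, 10 days; 0–100 visual control scale.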"}, "[3]": {"tested_on": "blackgrass", "assay": "Test C postemergence", "format": "in vivo, Alopecurus myosuroides", "settings": "10 days, 0 to 100 scale (0 no effect, 100 complete control)", "outline": "as §2"}, "[4]": {"tested_on": "oat, wild", "assay": "Test C preemergence", "format": "in vivo, Avena fatua", "settings": "preemergence, 0 to 100 scale (0 no effect, 100 complete control)", "outline": "as §2"}, "[5]": {"tested_on": "ryegrass, Italian", "assay": "Test C preemergence", "format": "in vivo, Lolium multiflorum", "settings": "preemergence, 0 to 100 scale (0 no effect, 100 complete control)", "outline": "as §2"}, "[6]": {"tested_on": "oat, wild", "assay": "Test C postemergence", "format": "in vivo, Avena fatua", "settings": "10 days, 0 to 100 scale (0 no effect, 100 complete control)", "outline": "as §2"}, "[7]": {"tested_on": "corn", "assay": "Test C preemergence", "format": "in vivo, Zea mays", "settings": "preemergence, 0 to 100 scale (0 no effect, 100 complete control)", "outline": "as §2"}, "[8]": {"tested_on": "horseweed", "assay": "Test C postemergence", "format": "in vivo, Erigeron canadensis", "settings": "10 days, 0 to 100 scale (0 no effect, 100 complete control)", "outline": "as §2"}, "[9]": {"tested_on": "soybean", "assay": "Test C preemergence", "format": "in vivo, Glycine max", "settings": "preemergence, 0 to 100 scale (0 no effect, 100 complete control)", "outline": "as §2"}, "[10]": {"tested_on": "ryegrass, Italian", "assay": "Test C postemergence", "format": "in vivo, Lolium multiflorum", "settings": "10 days, 0 to 100 scale (0 no effect, 100 complete control)", "outline": "as §2"}, "[11]": {"tested_on": "wheat", "assay": "Test C postemergence", "format": "in vivo, Triticum aestivum", "settings": "10 days, 0 to 100 scale (0 no effect, 100 complete control)", "outline": "as §2"}, "[12]": {"tested_on": "barnyardgrass", "assay": "Test C postemergence", "format": "in vivo, Echinochloa crusgalli", "settings": "10 days, 0 to 100 scale (0 no effect, 100 complete control)", "outline": "as §2"}, "[13]": {"tested_on": "kochia", "assay": "Test C postemergence", "format": "in vivo, Bassia scoparia", "settings": "10 days, 0 to 100 scale (0 no effect, 100 complete control)", "outline": "as §2"}, "[14]": {"tested_on": "blackgrass", "assay": "Test C preemergence", "format": "in vivo, Alopecurus myosuroides", "settings": "preemergence, 0 to 100 scale (0 no effect, 100 complete control)", "outline": "as §2"}, "[15]": {"tested_on": "barnyardgrass", "assay": "Test D flooded paddy test", "format": "in vivo, Echinochloa crus-galli", "settings": "250 g ai/ha, applied to paddy water, visual rating after 13 to 14 days, scale 0 to 100 (0 no effect, 100 complete control)", "outline": "as §1"}, "[16]": {"tested_on": "pigweed, palmer", "assay": "Test C preemergence", "format": "in vivo, Amaranthus palmeri", "settings": "preemergence, 0 to 100 scale (0 no effect, 100 complete control)", "outline": "as §2"}, "[17]": {"tested_on": "soybean", "assay": "Test C postemergence", "format": "in vivo, Glycine max", "settings": "10 days, 0 to 100 scale (0 no effect, 100 complete control)", "outline": "as §2"}, "[18]": {"tested_on": "galium", "assay": "Test C postemergence", "format": "in vivo, Galium aparine", "settings": "10 days, 0 to 100 scale (0 no effect, 100 complete control)", "outline": "as §2"}, "[19]": {"tested_on": "barnyardgrass", "assay": "Test C preemergence", "format": "in vivo, Echinochloa crusgalli", "settings": "preemergence, 0 to 100 scale (0 no effect, 100 complete control)", "outline": "as §2"}, "[20]": {"tested_on": "ragweed", "assay": "Test C postemergence", "format": "in vivo, Ambrosia artemisiifolia", "settings": "10 days, 0 to 100 scale (0 no effect, 100 complete control)", "outline": "as §2"}, "[21]": {"tested_on": "ducksalad", "assay": "Test D flooded paddy test", "format": "in vivo, Heteranthera limosa", "settings": "250 g ai/ha, applied to paddy water, visual rating after 13 to 14 days, scale 0 to 100 (0 no effect, 100 complete control)", "outline": "as §1"}, "[22]": {"tested_on": "ragweed", "assay": "Test C preemergence", "format": "in vivo, Ambrosia artemisiifolia", "settings": "preemergence, 0 to 100 scale (0 no effect, 100 complete control)", "outline": "as §2"}, "[23]": {"tested_on": "wheat", "assay": "Test C preemergence", "format": "in vivo, Triticum aestivum", "settings": "preemergence, 0 to 100 scale (0 no effect, 100 complete control)", "outline": "as §2"}, "[24]": {"tested_on": "green foxtail", "assay": "Test C preemergence", "format": "in vivo, Setaria viridis", "settings": "preemergence, 0 to 100 scale (0 no effect, 100 complete control)", "outline": "as §2"}, "[25]": {"tested_on": "rice", "assay": "Test D flooded paddy test", "format": "in vivo, Oryza sativa", "settings": "250 g ai/ha, applied to paddy water, visual rating after 13 to 14 days, scale 0 to 100 (0 no effect, 100 complete control)", "outline": "as §1"}, "[26]": {"tested_on": "pigweed, palmer", "assay": "Test C postemergence", "format": "in vivo, Amaranthus palmeri", "settings": "10 days, 0 to 100 scale (0 no effect, 100 complete control)", "outline": "as §2"}, "[27]": {"tested_on": "corn", "assay": "Test C postemergence", "format": "in vivo, Zea mays", "settings": "10 days, 0 to 100 scale (0 no effect, 100 complete control)", "outline": "as §2"}, "[28]": {"tested_on": "kochia", "assay": "Test C preemergence", "format": "in vivo, Bassia scoparia", "settings": "preemergence, 0 to 100 scale (0 no effect, 100 complete control)", "outline": "as §2"}}, "data": [{"smiles": "COc1ncn(-c2cccc(C(=O)N3C[C@H](C)Oc4c(Cl)cccc43)c2)n1", "note": "[Compound 310]", "values": [{"measurement": "Plant response rating, Sedge, Umbrella (Flood)", "setting": "[1]", "value": 80}, {"measurement": "Plant response rating, Foxtail, Green", "setting": "[2]; 500 g ai/ha, postemergence", "value": 50}, {"measurement": "Plant response rating, Foxtail, Green", "setting": "[2]; Postemergence, 125 g ai/ha", "value": 50}, {"measurement": "Plant response rating, Blackgrass", "setting": "[3]; 500 g ai/ha, postemergence", "value": 90}, {"measurement": "Plant response rating, Blackgrass", "setting": "[3]; Postemergence, 125 g ai/ha", "value": 50}, {"measurement": "Oat, Wild plant response rating", "setting": "[4]; 500 g ai/ha", "value": 60}, {"measurement": "Oat, Wild plant response rating", "setting": "[4]; Test C, 125 g ai/ha", "value": 0}, {"measurement": "Ryegrass, Italian plant response rating", "setting": "[5]; 500 g ai/ha", "value": 80}, {"measurement": "Ryegrass, Italian plant response rating", "setting": "[5]; Test C, 125 g ai/ha", "value": 30}, {"measurement": "Plant response rating, Oat, Wild", "setting": "[6]; 500 g ai/ha, postemergence", "value": 40}, {"measurement": "Plant response rating, Oat, Wild", "setting": "[6]; Postemergence, 125 g ai/ha", "value": 0}, {"measurement": "Corn plant response rating", "setting": "[7]; 500 g ai/ha", "value": 0}, {"measurement": "Corn plant response rating", "setting": "[7]; Test C, 125 g ai/ha", "value": 0}, {"measurement": "Plant response rating, Horseweed", "setting": "[8]; 500 g ai/ha, postemergence", "value": 30}, {"measurement": "Plant response rating, Horseweed", "setting": "[8]; Postemergence, 125 g ai/ha", "value": 0}, {"measurement": "Soybean plant response rating", "setting": "[9]; 500 g ai/ha", "value": 0}, {"measurement": "Soybean plant response rating", "setting": "[9]; Test C, 125 g ai/ha", "value": 40}, {"measurement": "Plant response rating, Ryegrass, Italian", "setting": "[10]; 500 g ai/ha, postemergence", "value": 80}, {"measurement": "Plant response rating, Ryegrass, Italian", "setting": "[10]; Postemergence, 125 g ai/ha", "value": 30}, {"measurement": "Plant response rating, Wheat", "setting": "[11]; 500 g ai/ha, postemergence", "value": 50}, {"measurement": "Plant response rating, Wheat", "setting": "[11]; Postemergence, 125 g ai/ha", "value": 10}, {"measurement": "Plant response rating, Barnyardgrass", "setting": "[12]; 500 g ai/ha, postemergence", "value": 80}, {"measurement": "Plant response rating, Barnyardgrass", "setting": "[12]; Postemergence, 125 g ai/ha", "value": 20}, {"measurement": "Plant response rating, Kochia", "setting": "[13]; 500 g ai/ha, postemergence", "value": 90}, {"measurement": "Plant response rating, Kochia", "setting": "[13]; Postemergence, 125 g ai/ha", "value": 70}, {"measurement": "Blackgrass plant response rating", "setting": "[14]; 500 g ai/ha", "value": 50}, {"measurement": "Blackgrass plant response rating", "setting": "[14]; Test C, 125 g ai/ha", "value": 10}, {"measurement": "Plant response rating, Barnyardgrass (Flood)", "setting": "[15]", "value": 10}, {"measurement": "Pigweed, Palmer plant response rating", "setting": "[16]; 500 g ai/ha", "value": 100}, {"measurement": "Pigweed, Palmer plant response rating", "setting": "[16]; Test C, 125 g ai/ha", "value": 80}, {"measurement": "Plant response rating, Soybean", "setting": "[17]; 500 g ai/ha, postemergence", "value": 100}, {"measurement": "Plant response rating, Soybean", "setting": "[17]; Postemergence, 125 g ai/ha", "value": 90}, {"measurement": "Plant response rating, Galium", "setting": "[18]; 500 g ai/ha, postemergence", "value": 90}, {"measurement": "Plant response rating, Galium", "setting": "[18]; Postemergence, 125 g ai/ha", "value": 90}, {"measurement": "Barnyardgrass plant response rating", "setting": "[19]; 500 g ai/ha", "value": 80}, {"measurement": "Barnyardgrass plant response rating", "setting": "[19]; Test C, 125 g ai/ha", "value": 20}, {"measurement": "Plant response rating, Ragweed", "setting": "[20]; 500 g ai/ha, postemergence", "value": 50}, {"measurement": "Plant response rating, Ragweed", "setting": "[20]; Postemergence, 125 g ai/ha", "value": 30}, {"measurement": "Plant response rating, Ducksalad (Flood)", "setting": "[21]", "value": 75}, {"measurement": "Ragweed plant response rating", "setting": "[22]; 500 g ai/ha", "value": 0}, {"measurement": "Ragweed plant response rating", "setting": "[22]; Test C, 125 g ai/ha", "value": 0}, {"measurement": "Wheat plant response rating", "setting": "[23]; 500 g ai/ha", "value": 0}, {"measurement": "Wheat plant response rating", "setting": "[23]; Test C, 125 g ai/ha", "value": 0}, {"measurement": "Foxtail, Green plant response rating", "setting": "[24]; 500 g ai/ha", "value": 100}, {"measurement": "Foxtail, Green plant response rating", "setting": "[24]; Test C, 125 g ai/ha", "value": 100}, {"measurement": "Plant response rating, Rice (Flood)", "setting": "[25]", "value": 0}, {"measurement": "Plant response rating, Pigweed, Palmer", "setting": "[26]; 500 g ai/ha, postemergence", "value": 90}, {"measurement": "Plant response rating, Pigweed, Palmer", "setting": "[26]; Postemergence, 125 g ai/ha", "value": 70}, {"measurement": "Plant response rating, Corn", "setting": "[27]; 500 g ai/ha, postemergence", "value": 60}, {"measurement": "Plant response rating, Corn", "setting": "[27]; Postemergence, 125 g ai/ha", "value": 10}, {"measurement": "Kochia plant response rating", "setting": "[28]; 500 g ai/ha", "value": 80}, {"measurement": "Kochia plant response rating", "setting": "[28]; Test C, 125 g ai/ha", "value": 50}]}]}
